This passage reports GI50 and TGI results from PubChem BioAssay (NCI).

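In this assay, cells in 96-well plates receive the compound at five concentrations for 48 hours. Endpoints are linearly interpolated between the surrounding concentrations. Here, GI50 denotes the concentration required for 50% inhibition of growth. The concentration for full growth arrest is given as TGI.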 Some results are limits rather than exact numbers.

Test in all cases: DTP human tumour cell line panel, 48 h
The test system of assay [1] is UO-31 renal.
For assay [2], the system named is PC-3 prostate.
The test system of assay [3] is OVCAR-5 ovarian.
For assay [4], the system named is SF-295 CNS.
For assay [5], the system named is IGROV1 ovarian.
Assay [6] deals with SK-MEL-2 melanoma.
Assay [7] has as its system RXF 393 renal.
The subject of assay [8] is NCI-H23 lung.
Assay [9] concerns MOLT-4 leukemia.
For assay [10], the system named is HCC-2998 colon.

With `CCCCCCCCCCCCCCCC1=NCC[N+]1(CCO)CCO`, the GI50 in [1] is 1400 nM; in assay [2] it was 1420 nM; in assay [3], 1970 nM; in assay [4], 10500 nM; in assay [5], 1210 nM; in assay [6] it was 2890 nM. For the same compound, the GI50 in assay [7] is 2470 nM; in assay [8], 2160 nM; in assay [9] it was 1800 nM; in assay [10] it was 1680 nM. For the same compound, the TGI in [1] was determined as 3330 nM; in assay [2], 3300 nM; in assay [3], 4150 nM; in assay [4], 26300 nM; in assay [5] it was 2630 nM; in assay [6] it was 10300 nM. For the same compound, the TGI in [7] was 6280 nM; in assay [8], 5080 nM; in assay [9], 4150 nM; in assay [10], 4190 nM.

With `NS(=O)(=O)OC[C@H]1C[C@@H](Nc2ccnc3cc(-c4cccc(SC(F)(F)F)c4)nn23)[C@H](O)[C@@H]1O`, the concentration for 50% growth inhibition (GI50) was 208 nM in [1]; 37.8 nM in [2]; 57.8 nM in assay [3]; 86 nM in [4]; 111 nM in assay [5]; 31.6 nM in [6]. For the same compound, the 50% growth inhibitory concentration (GI50) was 19.9 nM in assay [7], 33.8 nM in [8], 166 nM in [9] and 22 nM in assay [10]. The TGI stood at 369 nM in assay [1]; 367 nM in [2]; 2830 nM in [3]; 237 nM in assay [4]; 673 nM in assay [5]; 118 nM in assay [6]. Also, the TGI was determined as 43.6 nM in assay [7], 130 nM in assay [8], 588 nM in assay [9] and 44.2 nM in assay [10].

In the case of `Oc1ccc(C=Nc2ccccc2O)cc1`, the concentration for total growth inhibition (TGI) in assay [1] was greater than 100000 nM; in [2], greater than 100000 nM; in assay [3] it was greater than 100000 nM; in assay [4] it was greater than 100000 nM; in assay [5], greater than 100000 nM; in assay [6] it was 57300 nM. The concentration for total growth inhibition (TGI) in assay [7], in [8], in assay [9] and in [10] was greater than 100000 nM throughout.

Take `CC1Cc2c(Cl)ncnc2N(C)c2ccc(Cl)cc21` (stereo not given): the concentration for 50% growth inhibition (GI50) in assay [1] was 337 nM; in assay [2], 386 nM; in [3], 592 nM; in assay [4], 341 nM; in assay [5] it was 468 nM; in assay [6], 280 nM. Besides, the GI50 is 342 nM in [7], 316 nM in [8], 382 nM in assay [9] and 307 nM in [10]. The TGI in assay [1] is greater than 100000 nM; in assay [2] it was greater than 100000 nM; in assay [3], greater than 100000 nM; in [4] it was greater than 100000 nM; in assay [5] it was greater than 100000 nM; in [6], 836 nM. The TGI in assay [7] is 1460 nM; in assay [8], 2200 nM; in assay [9], greater than 100000 nM; in assay [10], 58100 nM.

`COc1ccc2c(c1)C(=O)c1c-2n(CCCN(C)C)c(=O)c2ccccc12`: the GI50 in [1] was 167 nM; in assay [2], 436 nM; in assay [3] it was 515 nM; in [4] it was 223 nM; in assay [5] it was 344 nM; in assay [6], 1860 nM. Also, the GI50 is 530 nM in assay [7], 318 nM in [8], less than 30.7 nM in assay [9] and 187 nM in assay [10]. In addition, the TGI in [1] turned out to be 811 nM; in assay [2], 8070 nM; in assay [3], 12700 nM; in assay [4], 1210 nM; in assay [5], 12300 nM; in assay [6], 7180 nM. Further, the TGI in assay [7] was 2340 nM; in assay [8], 1310 nM; in assay [9], 12000 nM; in [10], 955 nM.

As for `COc1ccc(C2(Cl)c3ccccc3N(c3ccccc3)c3ccccc32)cc1`, the GI50 in [1] is 846 nM; in assay [2] it was 238 nM; in [3] it was 2190 nM; in assay [4], 301 nM; in assay [5], 770 nM; in [6], 377 nM. In addition, the GI50 in assay [7] was 718 nM; in assay [8], 329 nM; in assay [9], 1830 nM; in [10] it was 357 nM. Further, the concentration for total growth inhibition (TGI) in [1] was 10800 nM; in assay [2] it was 4110 nM; in [3] it was 7640 nM; in assay [4], 1850 nM; in assay [5], 10300 nM; in [6], 1850 nM. Besides, the total growth inhibition concentration (TGI) stood at 2560 nM in [7], 1810 nM in assay [8], 11000 nM in [9] and 1530 nM in assay [10].
